Data: patent US20230066011A1, “PYRROLOPYRIMIDINE DERIVATIVE, AND PHARMACEUTICAL COMPOSITION FOR PREVENTING OR TREATING PROTEIN KINASE-RELATED DISEASE COMPRISING SAME AS ACTIVE INGREDIENT” (VORONOI CO., LTD., priority 2019, published 2023)

What was measured:
Assay type in all cases: biochemical
human GST-CLK1 = target: T1, human GST-CLK1 (Homo sapiens, UniProt P49759); experiment: GST-CLK1 enzyme inhibition, ADP-Glo kinase assay; details: ATP 10 μM, GST-CLK1 129-end
T1 construct: purified human GST-CLK1 (129-end, SignalChem) enzyme; purchased SignalChem
T1 sequence (P49759 129-484 limits assumed): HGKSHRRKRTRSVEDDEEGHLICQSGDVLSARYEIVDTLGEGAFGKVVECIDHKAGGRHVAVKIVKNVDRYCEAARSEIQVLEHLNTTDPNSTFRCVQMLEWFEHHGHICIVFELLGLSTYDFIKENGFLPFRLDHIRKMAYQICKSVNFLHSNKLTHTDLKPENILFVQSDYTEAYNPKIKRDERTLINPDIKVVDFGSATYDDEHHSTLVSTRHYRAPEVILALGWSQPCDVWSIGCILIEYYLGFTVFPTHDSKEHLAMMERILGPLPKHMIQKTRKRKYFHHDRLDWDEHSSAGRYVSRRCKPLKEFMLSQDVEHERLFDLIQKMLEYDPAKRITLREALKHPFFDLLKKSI
Method in brief: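 Human GST-CLK1 (129-end, 3 ng) reacted with substrate and 10 μM ATP for 1 h at 25° C in 40 mM Tris-HCl pH 7.4, 20 mM MgCl2, 0.5 mg/mL BSA, 50 μM DTT. ADP-Glo luminescence was normalised to solvent control; IC50 (nM) from 3 data sets.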

human GST-DYRK1A = target: T2, human GST-DYRK1A (Homo sapiens, UniProt Q13627); experiment: GST-DYRK1A enzyme inhibition, ADP-Glo kinase assay; details: ATP 10 μM, GST-DYRK1A full length, read-out: DYRK1 IC50
T2 construct: purified human GST-DYRK1A (full length, Thermo Scientifics) enzyme; purchased Thermo Scientifics
Method in brief: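 Full-length human GST-DYRK1A (10 ng) with 10 μM ATP and specific substrate in 40 mM Tris-HCl pH 7.4, 20 mM MgCl2, 0.5 mg/mL BSA, 50 μM DTT, 1 h at 25 °C. ADP formation read by ADP-Glo luminescence relative to solvent control; IC50 from three data sets.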

LRRK2 (G2019S) = LRRK2 (G2019S) (Homo sapiens, UniProt Q5S007, G2019S); experiment: LRRK2 G2019S enzyme inhibition, ADP-Glo kinase assay; parameters: purchased SignalChem L10-12GG; details: ATP 25 μM
Sequence of LRRK2 (G2019S) (Q5S007 970-2527 G2019S limits assumed): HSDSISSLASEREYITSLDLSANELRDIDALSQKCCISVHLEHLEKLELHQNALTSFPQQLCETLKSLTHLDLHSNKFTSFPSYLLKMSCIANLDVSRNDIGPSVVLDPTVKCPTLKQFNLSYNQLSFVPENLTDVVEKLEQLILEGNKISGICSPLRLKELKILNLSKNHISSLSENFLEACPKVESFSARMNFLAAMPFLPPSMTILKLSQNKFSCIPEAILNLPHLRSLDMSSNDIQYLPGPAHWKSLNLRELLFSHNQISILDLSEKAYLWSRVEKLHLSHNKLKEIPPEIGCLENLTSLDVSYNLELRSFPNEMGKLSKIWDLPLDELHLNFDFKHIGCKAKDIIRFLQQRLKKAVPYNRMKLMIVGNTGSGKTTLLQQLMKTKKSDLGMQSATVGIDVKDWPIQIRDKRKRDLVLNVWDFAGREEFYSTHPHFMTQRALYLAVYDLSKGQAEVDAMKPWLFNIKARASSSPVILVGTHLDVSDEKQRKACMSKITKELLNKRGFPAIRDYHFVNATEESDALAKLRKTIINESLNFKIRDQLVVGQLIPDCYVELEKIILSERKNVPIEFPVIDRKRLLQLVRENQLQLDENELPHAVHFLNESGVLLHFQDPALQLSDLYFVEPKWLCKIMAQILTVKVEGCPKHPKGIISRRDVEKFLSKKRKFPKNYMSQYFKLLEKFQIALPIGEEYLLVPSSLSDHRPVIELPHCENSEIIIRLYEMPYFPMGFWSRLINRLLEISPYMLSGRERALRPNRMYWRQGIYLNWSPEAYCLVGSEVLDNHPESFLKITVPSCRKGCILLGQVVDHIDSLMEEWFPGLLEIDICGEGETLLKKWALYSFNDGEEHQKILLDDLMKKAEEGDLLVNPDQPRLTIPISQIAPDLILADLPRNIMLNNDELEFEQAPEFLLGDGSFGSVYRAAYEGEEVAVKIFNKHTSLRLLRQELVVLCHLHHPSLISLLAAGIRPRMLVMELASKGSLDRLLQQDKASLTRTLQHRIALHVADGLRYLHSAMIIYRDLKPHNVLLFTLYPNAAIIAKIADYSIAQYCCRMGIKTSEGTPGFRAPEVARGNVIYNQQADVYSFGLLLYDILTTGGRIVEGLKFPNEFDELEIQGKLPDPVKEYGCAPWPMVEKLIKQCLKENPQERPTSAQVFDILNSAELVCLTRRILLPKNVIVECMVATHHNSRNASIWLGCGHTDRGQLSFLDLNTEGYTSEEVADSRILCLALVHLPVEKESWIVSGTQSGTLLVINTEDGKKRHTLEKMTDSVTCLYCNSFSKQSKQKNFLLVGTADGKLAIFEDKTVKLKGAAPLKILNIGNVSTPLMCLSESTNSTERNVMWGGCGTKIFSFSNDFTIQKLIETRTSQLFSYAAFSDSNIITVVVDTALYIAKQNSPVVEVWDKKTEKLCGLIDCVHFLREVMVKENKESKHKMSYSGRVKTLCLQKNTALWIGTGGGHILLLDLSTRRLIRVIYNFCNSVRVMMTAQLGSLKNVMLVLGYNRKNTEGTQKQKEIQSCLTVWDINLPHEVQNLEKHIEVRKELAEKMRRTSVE
Description: To evaluate an inhibitory activity of the compound according to the present invention against LRRK2, LRRK2 (G2019S), DYRK1, CLK1, and TTK kinases, experiments were performed as follows.
Each of the Example compounds was reacted with a purified human LRRK2 G2019S (L10-12GG, SignalChem) enzyme to evaluate an ability to inhibit an enzyme using a method as described below. A composition of 40 mM Tris-HCl (pH 7.4), 20 mM MgCl2, 0.5 mg/mL BSA, and 50 μM DTT was used as a reaction buffer, and all reactions of test substances were performed in the reaction buffer. Each of the compounds was diluted […] from a 10 mM DMSO stock using a serial dilution method, and enzyme activities were measured at final compound concentrations of 50, 10, 2, 0.4, 0.08, 0.016, 0.0032, 0.00064, 0.000128, 0.0000256, 0.00000512, and 0.000001024 μM. In the test, purified ATP (25 μM) and an enzyme substrate (0.2 μg) were reacted with a human LRRK2 G2019S (16 ng) enzyme at 25° C. for 2 hours, and the enzyme activities were then determined using an in vitro ADP-Glo™ kinase assay (Promega). An enzyme-activity reaction solution, an ADP-Glo reaction solution, and an enzyme-ability detection solution were reacted at a ratio of 2:2:1 to measure a degree of inhibition of the enzyme activity with luminescence. The degree of inhibition of the enzyme activity according to the treatment concentration of each of the compounds was calculated based on the fluorescence of the enzyme activity of the solvent control which was not treated with the compound. In this case, the concentration of each of the compounds inhibiting 50% of the enzyme activity was determined to be an IC50 (nM) value, and calculated using Prism (Version 5.01; GraphPad) software.

COc1cc(P2(=O)CCN(C3CC3)CC2)ccc1Nc1nc(N[C@H]2CCOC2)c2c(C(F)(F)F)c[nH]c2n1 [Example 417, (S)-1-cyclo-propyl-4-(3-methoxy-4-((4-((tetrahydrofuran-3-yl)amino)-5-(trifluoromethyl)-7H-pyrrolo[2,3-d]pyrimidin-2-yl)amino)phenyl)-1,4-azaphosphinane 4-oxide]
IC50 (human GST-CLK1): < 0.1 µM | IC50 (human GST-DYRK1A): 0.301 to 1 µM | IC50 (LRRK2 (G2019S)): < 0.1 µM

CCCNc1nc(Nc2ccc(S(=O)(=O)N3CCOCC3)cc2OC)nc2[nH]ccc12 [Example 7, N^2-(2-methoxy-4-(morpholinosulfonyl)phenyl)-N^4-propyl-7H-pyrrolo[2,3-d]pyrimidine-2,4-diamine 2,2,2-trifluoroacetate]
IC50 (human GST-CLK1): 0.301 to 1 µM | IC50 (human GST-DYRK1A): 0.301 to 1 µM | IC50 (LRRK2 (G2019S)): < 0.1 µM

COc1cc(S(=O)(=O)N2CCOCC2)ccc1Nc1nc(NCC2CCCC2)c2cc[nH]c2n1 [Example 40, N^4-(cyclopentylmethyl)-N^2-(2-methoxy-4-(morpholinosulfonyl)phenyl)-7H-pyrrolo[2,3-d]pyrimidine-2,4-diamine 2,2,2-trifluoroacetate]
IC50 (human GST-CLK1): 0.301 to 1 µM | IC50 (human GST-DYRK1A): 0.301 to 1 µM | IC50 (LRRK2 (G2019S)): 0.301 to 1 µM

COc1cc(S(=O)(=O)N2CCC(N3CCOCC3)CC2)ccc1Nc1nc(NCC2CCC2)c2cc[nH]c2n1 [Example 38, N^4-(cyclobutylmethyl)-N^2-(2-methoxy-4-((4-morpholinopiperidin-1-yl)sulfonyl)phenyl)-7H-pyrrolo[2,3-d]pyrimidine-2,4-diamine 2,2,2-trifluoroacetate]
IC50 (human GST-CLK1): 0.301 to 1 µM | IC50 (human GST-DYRK1A): 0.301 to 1 µM | IC50 (LRRK2 (G2019S)): < 0.1 µM

COc1cc(P(C)(C)=O)ccc1Nc1nc(N[C@@H]2CCOC2)c2c(C(F)(F)F)c[nH]c2n1 [Example 388, (R)-(3-methoxy-4-((4-((tetrahydrofuran-3-yl)amino)-5-(trifluoromethyl)-7H-pyrrolo[2,3-d]pyrimidin-2-yl)amino)phenyl)di-methylphosphine oxide]
IC50 (human GST-CLK1): < 0.1 µM | IC50 (human GST-DYRK1A): < 0.1 µM | IC50 (LRRK2 (G2019S)): < 0.1 µM

COc1cc(S(=O)(=O)N2CCOCC2)ccc1Nc1nc(NCC2CC2)c2cc[nH]c2n1 [Example 31, N^4-(cyclopropylmethyl)-N^2-(2-methoxy-4-(morpholinosulfonyl)phenyl)-7H-pyrrolo[2,3-d]pyrimidine-2,4-diamine 2,2,2-trifluoroacetate]
IC50 (human GST-CLK1): 0.301 to 1 µM | IC50 (human GST-DYRK1A): 0.301 to 1 µM | IC50 (LRRK2 (G2019S)): < 0.1 µM

COc1cc(P2(=O)CCN(C3CC3)CC2)ccc1Nc1nc(NCC2CC2)c2c(C(F)(F)F)c[nH]c2n1 [Example 421, 1-cyclopropyl-4-(4-((4-((cyclo-propylmeth-yl)amino)-5-(trifluoromethyl)-7H-pyrrolo[2,3-d]pyrimidin-2-yl)amino)-3-methoxyphenyl)-1,4-azaphosphinane 4-oxide]
IC50 (human GST-CLK1): 0.301 to 1 µM | IC50 (human GST-DYRK1A): 0.301 to 1 µM | IC50 (LRRK2 (G2019S)): < 0.1 µM

CNc1nc(Nc2ccc(P3(=O)CCN(C4CC4)CC3)cc2OC)nc2[nH]cc(C(F)(F)F)c12 [Example 216, 1-cyclopropyl-4-(3-methoxy-4-((4-(methylamino)-5-(trifluoromethyl)-7H-pyrrolo[2,3-d]pyrimidin-2-y)amino)phenyl)-1,4-azaphosphinane 4-oxide]
IC50 (human GST-CLK1): 0.101 to 0.3 µM | IC50 (human GST-DYRK1A): 0.101 to 0.3 µM | IC50 (LRRK2 (G2019S)): < 0.1 µM

COc1cc(S(=O)(=O)N2CCC(N3CCOCC3)CC2)ccc1Nc1nc(NC2CCC2)c2cc[nH]c2n1 [Example 23, N^4-cyclobutyl-N^2-(2-methoxy-4-((4-morpholinopiperidin-1-yl)sulfonyl)phenyl)-7H-pyrrolo[2,3-d]pyrimidine-2,4-diamine 2,2,2-trifluoroacetate]
IC50 (human GST-CLK1): 0.301 to 1 µM | IC50 (human GST-DYRK1A): 0.301 to 1 µM | IC50 (LRRK2 (G2019S)): < 0.1 µM

COc1cc(S(C)(=O)=O)ccc1Nc1nc(NCC2CC2)c2cc[nH]c2n1 [Example 33, N^4-(cyclopropylmethyl)-N^2-(2-methoxy-4-(methylsulfonyl)phenyl)-7H-pyrrolo[2,3-d]pyrimidine-2,4-diamine]
IC50 (human GST-CLK1): 0.301 to 1 µM | IC50 (human GST-DYRK1A): 0.301 to 1 µM | IC50 (LRRK2 (G2019S)): < 0.1 µM

COCC(C)(C)Nc1nc(Nc2ccc(S(C)(=O)=O)cc2OC)nc2[nH]ccc12 [Example 36, N^4-(1-methoxy-2-methylpropan-2-yl)-N^2-(2-methoxy-4-(methylsulfonyl)phenyl)-7H-pyrrolo[2,3-d]pyrimidine-2,4-diamine]
IC50 (human GST-CLK1): 0.301 to 1 µM | IC50 (human GST-DYRK1A): 0.301 to 1 µM | IC50 (LRRK2 (G2019S)): < 0.1 µM

CCNc1nc(Nc2ccc(S(=O)(=O)N3CCOCC3)cc2OC)nc2[nH]ccc12 [Example 5, N^4-ethyl-N^2-(2-methoxy-4-(morpholinosulfonyl)phenyl)-7H-pyrrolo[2,3-d]pyrimidine-2,4-diamine 2,2,2-trifluoroacetate]
IC50 (human GST-CLK1): 0.301 to 1 µM | IC50 (human GST-DYRK1A): 0.301 to 1 µM | IC50 (LRRK2 (G2019S)): < 0.1 µM

COc1cc(P2(=O)CCN(C3CC3)CC2)ccc1Nc1nc(NCC2CCC2)c2c(C(F)(F)F)c[nH]c2n1 [Example 423, 4-(4-((4-((cyclobutyl-methyl)amino)-5-(trifluoromethyl)-7H-pyrrolo[2,3-d]pyrimidin-2-yl)amino)-3-methoxyphenyl)-1-cyclopropyl-1,4-aza-phosphinane 4-oxide]
IC50 (human GST-CLK1): 0.301 to 1 µM | IC50 (human GST-DYRK1A): 0.301 to 1 µM | IC50 (LRRK2 (G2019S)): < 0.1 µM

COc1cc(P2(=O)CCN(C3CC3)CC2)ccc1Nc1nc(NC2CCC2)c2c(C(F)(F)F)c[nH]c2n1 [Example 406]
IC50 (human GST-CLK1): 0.101 to 0.3 µM | IC50 (human GST-DYRK1A): 0.301 to 1 µM | IC50 (LRRK2 (G2019S)): 0.101 to 0.3 µM

COc1cc(S(C)(=O)=O)ccc1Nc1nc(NCC2CC2)c2c(C#N)c[nH]c2n1 [Example 110, 4-((cyclopropylmethyl)amino)-2-((2-methoxy-4-(methylsulfonyl)phenyl)amino)-7H-pyrrolo[2,3-d]pyrimidine-5-carbonitrile]
IC50 (human GST-CLK1): 0.301 to 1 µM | IC50 (human GST-DYRK1A): 0.301 to 1 µM | IC50 (LRRK2 (G2019S)): < 0.1 µM

COc1cc(P2(=O)CCN(C3CC3)CC2)ccc1Nc1nc(NC2CCOCC2)c2c(C(F)(F)F)c[nH]c2n1 [Example 419, 1-cyclopropyl-4-(3-methoxy-4-((4-((tetrahydro-2H-pyran-4-yl)amino)-5-(trifluoro)-7H-pyrrolo[2,3-d]pyrimidin-2-yl)amino)phenyl)-1,4-azaphosphinane 4-oxide]
IC50 (human GST-CLK1): < 0.1 µM | IC50 (human GST-DYRK1A): 0.301 to 1 µM | IC50 (LRRK2 (G2019S)): < 0.1 µM

CCCCNc1nc(Nc2ccc(C(=O)N3CCOCC3)c3c2OCC3)nc2[nH]cc(C(F)(F)F)c12 [Example 465, (7-((4-(butylamino)-5-(trifluoromethyl)-7H-pyrrolo[2,3-d]pyrimidin-2-yl)amino)-2,3-dihydrobenzo-furan-4-yl) (morpholino) methanone]
IC50 (human GST-CLK1): 0.301 to 1 µM | IC50 (human GST-DYRK1A): 0.301 to 1 µM | IC50 (LRRK2 (G2019S)): < 0.1 µM

O=C(c1ccc(Nc2nc(N[C@H]3CCOC3)c3c(C(F)(F)F)c[nH]c3n2)c2c1OCCO2)N1CCOCC1 [Example 209, (S)-morpholino(8-((4-((tetrahydrofuran-3-yl)amino)-5-(trifluoromethyl)-7H-pyrrolo[2,3-d]pyrimidin-2-yl)amino)-2,3-dihydrobenzo[b][1,4]dioxin-5-yl)methanone]
IC50 (human GST-CLK1): < 0.1 µM | IC50 (human GST-DYRK1A): 0.301 to 1 µM | IC50 (LRRK2 (G2019S)): < 0.1 µM

O=C(c1ccc(Nc2nc(NCC3CC3)c3c(C(F)(F)F)c[nH]c3n2)c2c1CCO2)N1CCOCC1 [Example 457, (7-((4-((cyclo-propylmeth-yl)amino)-5-(trifluoromethyl)-7H-pyrrolo[2,3-d]pyrimidin-2-yl)amino)-2,3-dihydrobenzo-furan-4-yl) (morpholino) methanone]
IC50 (human GST-CLK1): < 0.1 µM | IC50 (human GST-DYRK1A): 0.301 to 1 µM | IC50 (LRRK2 (G2019S)): < 0.1 µM

CC(C)CNc1nc(Nc2ccc(C(=O)N3CCOCC3)c3c2OCC3)nc2[nH]cc(C(F)(F)F)c12 [Example 447, (7-((4-(iso-butylamino)-5-(trifluoromethyl)-7H-pyrrolo[2,3-d]pyrimidin-2-yl)amino)-2,3-dihydrobenzo-furan-4-yl) (morpholino) methanone]
IC50 (human GST-CLK1): 0.301 to 1 µM | IC50 (human GST-DYRK1A): 0.301 to 1 µM | IC50 (LRRK2 (G2019S)): < 0.1 µM

COc1cc(P(C)(C)=O)ccc1Nc1nc(NCC2CCC2)c2c(C(F)(F)F)c[nH]c2n1 [Example 391, (4-((4-((cyclo-butylmethyl)amino)-5-(trifluoromethyl)-7H-pyrrolo[2,3-d]pyrimidin-2-yl)amino)-3-methoxyphenyl) dimethyl-phosphine oxide]
IC50 (human GST-CLK1): 0.301 to 1 µM | IC50 (human GST-DYRK1A): 0.301 to 1 µM | IC50 (LRRK2 (G2019S)): < 0.1 µM
